Experimental data published in US20240384268A1, “Oligonucleotides” (Hudson Institute of Medical Research, priority 2021, published 2024).
d = 2'-deoxy (DNA); m = 2'-O-methyl

Molecular target: cGAS (Homo sapiens, UniProt Q8N884)
Experiment: ISD70-driven IP-10 production in HT-29 cells, ELISA
Format: cell-based
Parameters: endogenous in cells
Conditions: 187.5 nM ASO overnight, ISD70 24 h

cGAS, sequence (Q8N884 whole entry): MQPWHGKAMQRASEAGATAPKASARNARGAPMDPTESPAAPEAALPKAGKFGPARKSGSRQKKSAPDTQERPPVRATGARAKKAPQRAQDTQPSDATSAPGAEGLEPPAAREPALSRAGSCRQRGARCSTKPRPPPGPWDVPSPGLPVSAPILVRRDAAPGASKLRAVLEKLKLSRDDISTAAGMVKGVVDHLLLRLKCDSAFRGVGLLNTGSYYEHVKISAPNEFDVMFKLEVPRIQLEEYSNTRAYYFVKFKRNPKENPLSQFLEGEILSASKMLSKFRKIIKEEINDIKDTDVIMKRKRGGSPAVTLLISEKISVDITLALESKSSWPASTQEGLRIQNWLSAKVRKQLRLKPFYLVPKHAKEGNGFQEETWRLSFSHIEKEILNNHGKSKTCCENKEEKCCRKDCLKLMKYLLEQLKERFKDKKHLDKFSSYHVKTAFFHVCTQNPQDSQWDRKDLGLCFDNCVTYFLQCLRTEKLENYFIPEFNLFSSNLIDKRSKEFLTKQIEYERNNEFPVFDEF

Substance: mG*mA*mU*mG*mG*T*T*C*C*A*G*T*C*C*C*mU*mC*mU*mU*mC (GAUGGTTCCAGTCCCUCUUC; antisense; sugars from the 5' end m5 d10 m5, all phosphorothioate, methylation of C not given here) [[LINC-PINT]1497.1]
- reduction of ISD70-dependent IP-10 production: 25%
